Laboratory results from PubChem BioAssay AID200 (DTP/NCI, 2004).
Where “and” joins values, the source holds several entries; their conditions need not be identical. Identical values can stand only once. Toxic doses and inconclusive results are not listed. *1 amine or outer side, *2 acyl side, *3 side chain or, on linkers, in order; H or OH if unused. Where a SMILES comes first, the peptide text is derived from it. [ ]: non-standard residue; d: D form. The star is where a group is joined. X3 = CCC(=O)CC1CC(C)CC(C(=O)[*:2])N1[*:1]; X2 = CCCCCCCCC(C)C(=O)*; Aib = CC(C)(N)C(=O)O; X4 = CC(CN(C)CCO)N*

Test system: B6C3F1 mice, B16 melanoma ip, median survival T/C
Test: NCI In Vivo Anticancer Drug Screen. Data for tumor model B16 Melanoma (intraperitoneal) in B6C3F1 mice
Conditions: endpoint: median survival time, higher = longer survival
Summary of the method: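 Transplantable tumor in mice; treated vs vehicle control groups; survival or tumor size measured; value = T/C ratio.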

[1] = dose: 50.0 mg/kg/injection, schedule: Q01DX009 (ip), vehicle: saline
[2] = dose: 100.0 mg/kg/injection, schedule: Q01DX009 (ip), vehicle: saline
[3] = dose: 200.0 mg/kg/injection, schedule: Q01DX009 (ip), vehicle: saline
[4] = dose: 400.0 mg/kg/injection, schedule: Q01DX009 (ip), vehicle: saline
[5] = dose: 25.0 mg/kg/injection, schedule: Q01DX009 (ip), vehicle: Klucel (hydroxypropylcellulose) (HPC)
[6] = dose: 50.0 mg/kg/injection, schedule: Q01DX009 (ip), vehicle: Klucel (hydroxypropylcellulose) (HPC)
[7] = dose: 100.0 mg/kg/injection, schedule: Q01DX009 (ip), vehicle: Klucel (hydroxypropylcellulose) (HPC)
[8] = dose: 200.0 mg/kg/injection, schedule: Q01DX009 (ip), vehicle: Klucel (hydroxypropylcellulose) (HPC)
[9] = dose: 25.0 mg/kg/injection, schedule: Q01DX009 (ip), vehicle: saline
[10] = dose: 12.5 mg/kg/injection, schedule: Q01DX009 (ip), vehicle: saline with Tween-80
[11] = dose: 25.0 mg/kg/injection, schedule: Q01DX009 (ip), vehicle: saline with Tween-80
[12] = dose: 50.0 mg/kg/injection, schedule: Q01DX009 (ip), vehicle: saline with Tween-80

With `Cc1ccc2c(c1)Sc1ccc(N=NN(C)C)cc1N2C` the T/C (dose: 6.25 mg/kg/injection, schedule: Q01DX009 (ip), vehicle: other) was 100 % of control, the T/C (dose: 12.5 mg/kg/injection, schedule: Q01DX009 (ip), vehicle: other) was 114 % of control and the T/C (dose: 25.0 mg/kg/injection, schedule: Q01DX009 (ip), vehicle: other) was 114 % of control. The T/C (dose: 50.0 mg/kg/injection, schedule: Q01DX009 (ip), vehicle: other) was 115 % of control.
For `CC(=O)NC(Cc1cc(I)c(O)c(I)c1)C(=O)O` (stereo not given), the T/C [1] was 121 % of control, the T/C [2] was 89 % of control and the T/C [3] was 92 % of control. The T/C [4] was 102 % of control.
`COC12C(COC(N)=O)C3=C(C(=O)C(C)=C(N)C3=O)N1CC1C2N1C` (stereo not given) was tested, and the T/C (dose: 1.0 mg/kg/injection, schedule: Q01DX009 (ip), vehicle: saline) was 112 % of control and 99 % of control, the T/C (dose: 2.0 mg/kg/injection, schedule: Q01DX009 (ip), vehicle: saline) was 88 % of control and the T/C (dose: 8.0 mg/kg/injection, schedule: Q01DX009 (ip), vehicle: saline) was 111 % of control and 89 % of control.
For `O=C1SC(c2ccccc2)=S=C1c1ccccc1`, the T/C [5] was 92 % of control, the T/C [6] was 97 % of control and the T/C [7] was 98 % of control. For the same compound, the T/C [8] was 93 % of control.
`NCCCCC(NC(=O)OCC1c2ccccc2-c2ccccc21)C(=O)O` (stereo not given) was tested, and the T/C [5] was 92 % of control, the T/C [6] was 101 % of control and the T/C [7] was 97 % of control and 100 % of control.
With `CCCCCCCCC(C)C(=O)N1CCCC1C(=O)N1C(CC(=O)CC)CC(C)CC1C(=O)NC(C)C(=O)NC(C)(C)C(=O)NC(C)(C)C(=O)NC(C(=O)NC(C)C(=O)NC(C)(C)C(=O)NC(C)(C)C(=O)NC(C)CN(C)CCO)C(C)CC` (stereo not given) (X2-P[X3]A[Aib][Aib]IA[Aib][Aib]-X4; configuration not given here) the T/C (dose: 0.15 mg/kg/injection, schedule: Q01DX009 (ip), vehicle: Klucel (hydroxypropylcellulose) (HPC)) was 98 % of control, the T/C (dose: 0.31 mg/kg/injection, schedule: Q01DX009 (ip), vehicle: Klucel (hydroxypropylcellulose) (HPC)) was 91 % of control and the T/C (dose: 0.62 mg/kg/injection, schedule: Q01DX009 (ip), vehicle: Klucel (hydroxypropylcellulose) (HPC)) was 97 % of control. The T/C (dose: 1.25 mg/kg/injection, schedule: Q01DX009 (ip), vehicle: Klucel (hydroxypropylcellulose) (HPC)) was 89 % of control, the T/C (dose: 2.5 mg/kg/injection, schedule: Q01DX009 (ip), vehicle: Klucel (hydroxypropylcellulose) (HPC)) was 92 % of control and the T/C (dose: 5.0 mg/kg/injection, schedule: Q01DX009 (ip), vehicle: Klucel (hydroxypropylcellulose) (HPC)) was 86 % of control.
In the case of `C[C@H](N)C(=O)N[C@@H]1[C@H]2C(=C(O)C[C@@H](O)[C@@H]2O)C(=O)O[C@]1(C)C(Cl)Cl`, the T/C (dose: 0.18 mg/kg/injection, schedule: Q01DX009 (ip), vehicle: Klucel (hydroxypropylcellulose) (HPC)) is reported as 95 % of control, the T/C (dose: 0.19 mg/kg/injection, schedule: Q01DX009 (ip), vehicle: Klucel (hydroxypropylcellulose) (HPC)) is reported as 100 % of control and the T/C (dose: 0.37 mg/kg/injection, schedule: Q01DX009 (ip), vehicle: Klucel (hydroxypropylcellulose) (HPC)) is reported as 101 % of control and 107 % of control. For the same compound, the T/C (dose: 0.38 mg/kg/injection, schedule: Q01DX009 (ip), vehicle: Klucel (hydroxypropylcellulose) (HPC)) was 105 % of control, the T/C (dose: 0.75 mg/kg/injection, schedule: Q01DX009 (ip), vehicle: Klucel (hydroxypropylcellulose) (HPC)) was 116 % of control and 104 % of control (2×) and the T/C (dose: 1.5 mg/kg/injection, schedule: Q01DX009 (ip), vehicle: Klucel (hydroxypropylcellulose) (HPC)) was 112 % of control and 113 % of control and 118 % of control.
`O=C(O)C(CSC(c1ccccc1)(c1ccccc1)c1ccccc1)N=Cc1cccs1` (stereo not given) was tested, and the T/C (dose: 12.5 mg/kg/injection, schedule: Q01DX009 (ip), vehicle: suspension in saline) was 112 % of control and the T/C (dose: 25.0 mg/kg/injection, schedule: Q01DX009 (ip), vehicle: suspension in saline) was 118 % of control.
`C=C1CCOC2(C(O)C(C)(O)CO)NC(=O)C1(O)NC2=O` (stereo not given) was tested, and the T/C [1] was 97 % of control, the T/C [2] was 95 % of control and the T/C [3] was 99 % of control.
`CN(C)c1ccc2c(Nc3ccc(NS(C)(=O)=O)cc3)c3ccc(N(C)C)cc3nc2c1` was tested, and the T/C [5] was 94 % of control, the T/C [6] was 115 % of control and 92 % of control and the T/C [7] was 90 % of control and 104 % of control.
For `Nc1c(Cl)[nH]cnc1=S`, the T/C [9] was 89 % of control, the T/C [1] was 105 % of control and the T/C [2] was 88 % of control and 91 % of control.
With `C=CCOc1cc2c(cc1C(C)c1ccc(OC)cc1)OCO2` (stereo not given) the T/C [5] was 120 % of control, the T/C [6] was 124 % of control and 99 % of control and the T/C [7] was 108 % of control. For the same compound, the T/C [8] was 115 % of control.
For `COC12[C@@H]3N[C@@H]3CN1C1=C(C(=O)C(NCCSSCCNC3=C(C)C(=O)C4=C(C3=O)C(COC(N)=O)[C@]3(OC)C5N[C@@H]5CN43)=C(C)C1=O)[C@@H]2COC(N)=O` (stereo not given in full), the T/C (dose: 0.75 mg/kg/injection, schedule: Q04DX003 (ip), vehicle: suspension in saline) was 193 % of control, the T/C (dose: 1.5 mg/kg/injection, schedule: Q04DX003 (ip), vehicle: suspension in saline) was 190 % of control and the T/C (dose: 3.0 mg/kg/injection, schedule: Q04DX003 (ip), vehicle: suspension in saline) was 218 % of control. For the same compound, the T/C (dose: 6.0 mg/kg/injection, schedule: Q04DX003 (ip), vehicle: suspension in saline) was 218 % of control and the T/C (dose: 12.0 mg/kg/injection, schedule: Q04DX003 (ip), vehicle: suspension in saline) was 218 % of control.
For `CC1=C[S+](c2ccccc2)c2cccc3cc4ccccc4c1c23` (stereo not given), the T/C (dose: 0.06 mg/kg/injection, schedule: Q01DX009 (ip), vehicle: saline with Tween-80) was 106 % of control, the T/C (dose: 0.12 mg/kg/injection, schedule: Q01DX009 (ip), vehicle: saline with Tween-80) was 103 % of control and the T/C (dose: 0.25 mg/kg/injection, schedule: Q01DX009 (ip), vehicle: saline with Tween-80) was 115 % of control. The T/C (dose: 0.5 mg/kg/injection, schedule: Q01DX009 (ip), vehicle: saline with Tween-80) was 100 % of control, the T/C (dose: 1.0 mg/kg/injection, schedule: Q01DX009 (ip), vehicle: saline with Tween-80) was 111 % of control and the T/C (dose: 2.0 mg/kg/injection, schedule: Q01DX009 (ip), vehicle: saline with Tween-80) was 112 % of control and 106 % of control.
With `CN(C)[C@@H]1C(=O)C(C(=O)NCN2CCN(C(=N)N=C(N)N)CC2)=C(O)[C@@]2(O)C(=O)C3=C(O)c4c(O)cccc4[C@@](C)(O)[C@H]3C[C@@H]12` the T/C (dose: 0.31 mg/kg/injection, schedule: Q01DX009 (ip), vehicle: saline) was 94 % of control, the T/C (dose: 0.62 mg/kg/injection, schedule: Q01DX009 (ip), vehicle: saline) was 98 % of control and the T/C (dose: 1.25 mg/kg/injection, schedule: Q01DX009 (ip), vehicle: saline) was 111 % of control and 103 % of control. The T/C (dose: 2.5 mg/kg/injection, schedule: Q01DX009 (ip), vehicle: saline) was 90 % of control and 103 % of control and the T/C (dose: 5.0 mg/kg/injection, schedule: Q01DX009 (ip), vehicle: saline) was 101 % of control and 103 % of control.
In the case of `O=C(O)CCC(NC(=O)OCc1ccccc1)C(=O)NCC(=O)O` (stereo not given) (HELM PEPTIDE1{[O=C(OCc1ccccc1)[*:2]].[O=C(O)CCC(N[*:1])C(=O)[*:2]].G}$$$$V2.0), the T/C [9] is reported as 102 % of control, the T/C [1] is reported as 97 % of control and the T/C [2] is reported as 107 % of control. The T/C [3] was 113 % of control and the T/C [4] was 112 % of control.
`NC(=O)/C=C/C(N)=O` was tested, and the T/C [10] was 113 % of control, the T/C [11] was 109 % of control and the T/C [12] was 89 % of control.
For `COc1ccc2[nH]c3ccc4cc[n+](CCN5CCC(C6CCN(CC[n+]7ccc8ccc9[nH]c%10ccc(OC)cc%10c9c8c7)CC6)CC5)cc4c3c2c1`, the T/C (dose: 6.0 mg/kg/injection, schedule: Q01DX009 (ip), vehicle: water) was 155 % of control, the T/C (dose: 12.0 mg/kg/injection, schedule: Q01DX009 (ip), vehicle: water) was 158 % of control and the T/C (dose: 12.5 mg/kg/injection, schedule: Q01DX009 (ip), vehicle: Klucel (hydroxypropylcellulose) (HPC)) was 155 % of control. For the same compound, the T/C [5] was 203 % of control, the T/C (dose: 25.0 mg/kg/injection, schedule: Q01DX009 (ip), vehicle: water) was 177 % of control and the T/C [6] was 192 % of control. The T/C (dose: 50.0 mg/kg/injection, schedule: Q01DX009 (ip), vehicle: water) was 168 % of control, the T/C [7] was 167 % of control and the T/C (dose: 100.0 mg/kg/injection, schedule: Q01DX009 (ip), vehicle: water) was 197 % of control.
With `CC(CNC(=O)CCOS(C)(=O)=O)NC(=O)CCOS(C)(=O)=O` (stereo not given) the T/C [2] was 187 % of control and the T/C [3] was 177 % of control and 240 % of control.
With `COc1cc(OC)c(NC(=O)ON2C(=O)c3ccccc3C2=O)cc1Cl` the T/C (dose: 3.12 mg/kg/injection, schedule: Q01DX009 (ip), vehicle: saline with Tween-80) was 98 % of control, the T/C (dose: 6.25 mg/kg/injection, schedule: Q01DX009 (ip), vehicle: saline with Tween-80) was 104 % of control and the T/C [10] was 104 % of control. For the same compound, the T/C [11] was 96 % of control and the T/C [12] was 87 % of control.
